In PMC3500254, “Potent Inhibition of Late Stages of Hepadnavirus Replication by a Modified Cell Penetrating Peptide” (PLoS ONE, 2012):

Tests used:
[1] = tested on: Duck Hepatitis B Virus (DHBV); assay: Intracellular viral RNA and DNA replicative forms in infected PDH (Northern and Southern blot); assay type: cell-based; conditions: 5 days, 3-TC as control
Method: (§1) To determine whether the decrease in DHBV secretion is caused by an inhibition of virus replication, LMH-D2 cells and PDHs were treated with different concentration of Deca-(Arg)8 followed by quantification of viral RNA and intracellular DNA replication intermediates by Northern and Southern blot, respectively. As a control, cells were treated by 3-TC, which is a specific inhibitor of the DHBV polymerase, [33]. […] An unspecific effect on transcription can be excluded as mRNA synthesis in transfected LMH-D2 cells was not impaired.
(§2) Figure 4 Effect of Deca-(Arg)8 on the intracellular hepadnavirus intermediate replicative forms. Infected PDH (A), and stably DHBV-transfected LMH-D2 (B) cells were treated with different amounts of Deca-(Arg)8 ranking from 0.5 µM to 2 µM for 5 days. At the end of treatment, the cells were harvested and lysed for DNA and RNA extraction. […] For the Northern blot the level of DHBV RNA was normalized on the GAPDH RNA amount. […] Bands corresponding to the expected size of relaxed circular (RC), linear (L), single-stranded (SS) and covalently closed circular (ccc) DHBV DNA are indicated. […]
(§3) Cells supernatants were harvested daily, spotted onto positively charged nylon membrane and extracellular DHBV DNA was detected in supernatant of cells by dot blot hybridization assay using a full-length ^32P-labelled DHBV probe as described previously. […]

[2] = tested on: Duck Hepatitis B Virus (DHBV); assay: Intracellular viral RNA and DNA replicative forms in LMH-D2 cells (Northern and Southern blot); assay type: cell-based; conditions: 5 days, Deca-(Arg)8 at 2 µM, 3-TC as control, Northern blot normalized on GAPDH RNA
Method: as §1, §2, §3

Nc1ccn([C@@H]2CS[C@H](CO)O2)c(=O)n1 [3-TC, Lamivudine]
viral RNA levels ([1]; PDH, Deca-(Arg)8 at 2 µM, Northern blot normalized on GAPDH RNA): reduction of viral mRNA synthesis | cccDNA ([1]; infected PDH, Deca-(Arg)8 0.5 µM to 2 µM, Southern blot): prevented cccDNA formation | viral RNA levels [2]: not impaired
